Where two headings read alike, the source gives them in different places.
Experiments:
[1] = tested on: gp120 isolates SF2, SF162, Bal, IIIB, YU2; experiment: Direct binding by fluorescence anisotropy, comparison over all isolates; design: species or system HIV-1; conditions: depending on gp120 isolates
Method: Direct binding assays of fluorescent peptides were performed in triplicates by adding 10 μL of 0.5 nM Alexa-labeled mini-proteins and 10 μL of serial dilutions (two-thirds dilutions in 16 wells, starting at 200 nM) of gp120 SF2, SF162, BaL, IIIB and YU2. Collected data were fitted to the following equation using a non-linear regression program (Prism, GraphPad software Inc.):
The biphenylalanine in position 23 led to a 3 fold gain, consistent with the previously observed difference between CD4M33 and its [Phe^23]M33 mutant (Huang et al., Structure, 2005, 13, 755-768).

[2] = tested on: gp120
Method: Fluorescence anisotropy was determined after 40 min equilibration time at room temperature, using 485 nm excitation and 530 nm emission filters and an additional 505 nm dichroic filter. All experiments were performed in duplicate.
Fluorescence anisotropy measurements were based on the assessment of the rotational motions of species. Whereas the CD4-mimic tumbles very fast in solution randomizing excited molecules, once it binds to gp120 envelopes, the excited mini-protein stays aligned during the process of emission and as a result, emitted light is polarized.

[3] = tested on: gp120 (SF162, YU2, SF2, LAI, HXB2) binding to CD4i antibody 48d; experiment: SPR analysis of binding of gp120 complexes to immobilized CD4i Ab 48d; design: species or system HIV-1; conditions: 50 nM gp120 premixed with 3 eq.
Method: 120 μL of 50 nM gp120 preincubated with 3 eq. […] (A) gp120SF162, (B) gp120LAI. (C) gp120YU2.
The different gp120 (SF162, YU2, LAI, HXB2, SF2) were premixed at a final concentration of 50 nM with 3 eq. CD4M48, 3 eq. CD4M48 in presence of 3 eq. LMW heparin or 3 eq. covalent CD4M48−heparin for 60 min before injection at 20 μL/min. All sensorgrams were corrected by substracting the signal from reference flow cell.

[4] = target: T1, gp120SF162 binding to CCR5+-CHO cells (Human immunodeficiency virus type 1 group M subtype B, UniProt P19550); experiment: FACS analysis of gp120 binding to CCR5+-CHO cells in presence of CD4 mimics; format: cell-based, HIV-1; conditions: gp120SF162 pre-incubated with mini-protein
T1 construct: R5-tropic SF162 and Dual-tropic SF2 recombinant gp120s were produced in mammalian cells (CHO); made in house; host or cells: gp120: CHO; CCR5: transfected CHO-K1 cells
From the text: FIG. 7 illustrates the FACS analysis of the binding of recombinant envelope gp120 to CCR5^+-CHO cells in absence or in presence of various CD4-mimics, in comparison with soluble CD4.
FIG. 13 illustrates the FACS analysis of the binding of recombinant envelope gp120 to CCR5^+-CHO cells in absence or in presence of various CD4-mimics in comparison with soluble CD4.
FIG. 19 illustrates the FACS analysis of the binding of gp120SF162 to CCR5^+ CHO cells in absence or in presence of CD4M48 monomer or hetero-bivalent CD4M48−heparin. The ability of gp120 in complex with CD4M48 alone, CD4M48 covalently bound to heparin (noted M48−heparin), CD4M48 in presence of free LMW heparin (1:1) (noted M48+heparin) to bind to cellular co-receptor CCR5 was investigated.
Adherent CHO-K1 cells expressing CCR5 (Samson et al., Biochemistry, 1996, 35, 3362-3367; Blanpain et al., Blood, 2000, 96, 1638-1645) were used to analyze gp120SF162 conformational change in complex with different mini-proteins, by FACS (BECKTON DICKINSON). Briefly, 0.03 μg of gp120SF162 were pre-incubated overnight at 4° C. in absence or in presence of 10 nM CD4 or 10 nM mini-proteins and further added to 2×10^5 cells in HAM F12 supplemented with 10% SVF, 1% penicillin/streptomycin. […] After final wash, cells were analyzed for envelope binding by FACS.

[5] = tested on: HIV-1 NL4.3(X4); format: cell-based
Method: The acute infection assays in primary cells were performed as described by Schols and coworkers (Balzarini et al., J. Biol. Chem., 2005, 280, 41005-41014). Briefly, PBMC from healthy donors were isolated by density gradient centrifugation and stimulated by phytohemagglutinin (PHA; SIGMA) in RPMI 1640 medium supplemented with 10% foetal calf serum (FCS; BIOCHROM). PBMC were infected by exposing cells (0.5×10^6/well; 48-well plate) to the viral stocks added at a final dose of 250 pg of p24/mL in the presence or the absence of the inhibitors. Cell supernatant was collected at day 12, and HIV-1 core Ag in the culture supernatant was analysed by a p24 Ag enzyme-linked immunosorbent assay kit (PERKIN ELMER).
(§1) The experimental procedures are as described in example 1.

[6] = tested on: HIV-1 714(R5); experiment: Acute infection assay in PM1 cells; format: cell-based; conditions: day 5, read-out: Antiviral activity IC50
Method: (§2) For the acute infection assay in PM1 cell line (Lusso et al., J. virol., 1995, 69, 3712-3720), an immortalized CD4^+CCR5^+CXCR4^+ T-cell clone susceptible of a wide variety of HIV-1 strains, the cells were seeded at 2.5×10^4 cells/well into flat-bottom 96-well plates in 200 μL of complete RPMI medium. Cells were then exposed to the viral stocks (˜50 TCID50/well) pre-treated or not with serial dilutions of inhibitors for 30 min. After overnight incubation at 37° C., the cells were washed twice and recultured in complete RPMI medium supplemented with the appropriate inhibitors. After 3, 5 or 7 days, the culture supernatant was removed […] p24 antigen testing and replaced with fresh medium containing the appropriate inhibitors. The extracellular p24 concentrations were measured by capture ELISA, using a sandwich of specific antibodies (AALTO BIO REAGENTS).
as §1

[7] = tested on: HIV-1 BaL(R5); experiment: Acute infection assay in PM1 cells; format: cell-based; conditions: day 5, read-out: Antiviral activity IC50
Method: as §2, §1

[8] = tested on: HIV-1 6393(R5); experiment: Acute infection assay in PM1 cells; format: cell-based; conditions: day 5, read-out: Antiviral activity IC50
Method: as §2, §1

[9] = tested on: HIV-1 NL4.3 (X4); format: cell-based
Method: The antiviral activity of the molecules in MT-4 cells was determined using a tetrazolium-based colorimetric assay (Hase et al., Biochem. Pharmacol., 2005, 70, 752-761). Briefly, five-fold dilutions of the test compounds in 100 μL of medium were added to duplicate wells of 96-well flat bottom plates (IWAKI). Then 6×10^4 MT-4 cells were added in 50 μL of medium, and finally 50 μL of diluted HIV-1 stocks was added to each well. Cytopathic effect induced by the virus was monitored by daily microscopic evaluation of the virus-infected cell cultures. At day 4-5 after infection, the cell viability was assessed via the in situ reduction of the tetrazolium compound MTS, using the CellTiter 96® AQueous one solution cell proliferation assay (PROMEGA). The absorbance was then measured at 490 nm with a 96-well plate reader and compared with four cell control replicates (cells without virus and drugs) and four virus control wells (virus-infected cells without drugs). The IC50 was calculated for each compound from the dose-response curve.
as §1

[10] = target: gp120SF162 (Human immunodeficiency virus type 1 group M subtype B, UniProt P19550); conditions: injected at 125 nM; curves normalized to CD4M48
Method: 100 μL of monomer, dimers and tetramers were passed over the surface at 20 μL/min after which dissociation of bound inhibitors was monitored for 15 min.
All experiments were conducted at 25° C. with 20 μL/min flow rate in HBS (50 mM HEPES-buffered saline, 3 mM EDTA, 0.05% Biacore surfactant P20, pH 7.4) with a BIACORE 3000 instrument (BIACORE AB).
For binding of multimers to gp120, gp120SF162 was immobilized on a CM5 sensor chip at 9000 RU by the amine coupling kit provided by the manufacturer.

[11] = MT-4 cells, NL4.3 (X4), day 5, read-out: Antiviral activity IC50

Row | Substance | Improvement of affinity (Kd) compared to CD4M33 [1] | IC50 [6] | IC50 [7] | IC50 [8] | IC50 [9, 11] | further results
1 | CD4M47-F1: CD4M47 labeled with Alexa-488 probe at Lys11 | 5.2- to 12.3 fold | – | – | – | – | –
2 | CD4M48-F1: CD4M48 labeled with Alexa-488 probe at Lys11 (XNLHFCQLRCKSLGLLGRCAXTFCACV; not fully specified; D-residues) | 1.1 to 6.1 fold | – | – | – | – | –
3 | CD4M48-hep: hetero-bivalent inhibitor: CD4M48-hydrazino (Lys-11) covalently ligated to heparin mono-aldehyde (XNLHFCQLRCKSLGLLGRCAXTFCACV; not fully specified; D-residues) | – | – | – | – | – | Inhibition of CD4M33-F1 binding to gp120 (competitive polarization) [2]: nanomolar range; Recognition of the gp120 complex by CD4i Ab 48d [3]: inhibit completely the recognition of the complex by CD4i-Ab 48d; Binding of gp120 to CCR5+-CHO cells induced by the mimic (conformational change of gp120) [4]: prevents the binding of the complex to CCR5+ cells
4 | CD4M48T50: CD4M48 tetramer on polylysine construct with 50 Å PEGylated linkers | – | 680 nM | 310 nM | 350 nM | 31 nM | IC50 ([5]; PBMC, day 12, read-out: Antiviral activity IC50): < 26 nM
5 | CD4M48T100: CD4M48 tetramer on polylysine construct with 100 Å PEGylated linkers (XNLHFCQLRCKSLGLLGRCAXTFCACV; not fully specified; D-residues) | – | 360 nM | 45 nM | 55 nM | 22 nM | Dissociation from immobilized gp120 (off-rate) compared to monomer CD4M48 [10]: slowed-down dissociation phase
6 | Enfuvirtide | – | – | – | – | – | IC50 [5]: 13 nM; IC50 ([9]; NL4.3(X4)): 11 nM

From US8354498B2, “CD4 mimic peptides and their uses” (Commissariat a l'Energie Atomique, priority 2006, dated 2013)
